# Assay results reported in patent US8613914B2, “Peptidomimetic sulfamide compounds and antiviral uses thereof” (Novartis AG, priority 2009, dated 2013).
# Biological target: HCV NS3-4A serine protease (full-length NS3-4A protein) (Hepatitis C virus genotype 1a (isolate 1) (HCV), UniProt P26664)
# Experiment: HCV NS3-4A protease assay
# Assay type: biochemical, HCV genotype 1a
# Conditions: strain HCV-1, fluorogenic peptide substrate, read-out: Protease assay Ex. 12 IC50
# Experimental: The inhibitory activity of certain compounds of Table A against HCV NS3-4A serine protease is determined in a homogenous assay using the full-length NS3-4A protein (genotype 1a, strain HCV-1) and a commercially available internally-quenched fluorogenic peptide substrate as described by Taliani, M., et al. 1996 Anal. Biochem. 240:60-67, which is incorporated by reference in its entirety.
# HCV NS3-4A serine protease (full-length NS3-4A protein), sequence (P26664 1027-1657): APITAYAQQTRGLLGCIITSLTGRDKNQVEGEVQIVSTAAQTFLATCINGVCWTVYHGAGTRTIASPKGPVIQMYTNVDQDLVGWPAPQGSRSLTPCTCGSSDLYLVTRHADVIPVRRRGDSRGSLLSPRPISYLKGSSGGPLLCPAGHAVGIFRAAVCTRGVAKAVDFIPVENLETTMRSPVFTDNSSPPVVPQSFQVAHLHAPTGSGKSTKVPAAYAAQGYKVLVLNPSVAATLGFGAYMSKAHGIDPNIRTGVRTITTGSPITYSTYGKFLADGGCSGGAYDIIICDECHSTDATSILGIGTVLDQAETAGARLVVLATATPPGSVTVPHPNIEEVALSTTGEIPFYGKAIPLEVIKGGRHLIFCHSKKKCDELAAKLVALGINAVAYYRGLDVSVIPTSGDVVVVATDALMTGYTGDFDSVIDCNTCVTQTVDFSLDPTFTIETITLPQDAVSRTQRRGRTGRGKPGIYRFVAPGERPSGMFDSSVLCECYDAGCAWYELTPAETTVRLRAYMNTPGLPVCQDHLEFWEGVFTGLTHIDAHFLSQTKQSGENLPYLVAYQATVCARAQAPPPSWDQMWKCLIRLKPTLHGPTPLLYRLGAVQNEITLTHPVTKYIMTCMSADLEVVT
# HCV NS3-4A serine protease (full-length NS3-4A protein), sequence (P26664 1658-1711 partner): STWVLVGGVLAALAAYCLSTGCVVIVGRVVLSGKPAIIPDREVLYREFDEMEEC
row,SMILES,IC50 [µM]
1,"C=C[C@@H]1C[C@]1(NC(=O)[C@@H]1C[C@@]2(CN1C(=O)[C@@H](NC(=O)OC(C)(C)C)C(C)(C)C)C(C)(C)C21CCC1)C(=O)NS(=O)(=O)N1CCCC1 [Compound 1, tert-butyl [(1S)-1-{[(5R,8S)-10,10-dimethyl-8-({(1R,2S)-1-[(pyrrolidin-1-ylsulfonyl)carbamoyl]-2-vinylcyclopropyl}carbamoyl)-7-azadispiro[3.0.4.1]dec-7-yl]carbonyl}-2,2-dimethylpropyl]carbamate]",0.4
2,"C=C[C@@H]1C[C@]1(NC(=O)[C@@H]1C[C@@]2(CN1C(=O)[C@@H](NC(=O)[C@@H](NC(=O)OC(C)(C)C)C(C)(C)C)C(C)(C)C)C(C)(C)C21CCC1)C(=O)NS(=O)(=O)N1CCCC1 [Compound 2, tert-butyl [(1S)-1-{[(1S)-1-{[(5R,8S)-10,10-dimethyl-8-({(1R,2S)-1-[(pyrrolidin-1-ylsulfonyl)carbamoyl]-2-vinylcyclopropyl}carbamoyl)-7-azadispiro[3.0.4.1]dec-7-yl]carbonyl}-2,2-dimethylpropyl]carbamoyl}-2,2-dimethylpropyl]carbamate]",0.75
3,"C=C[C@@H]1C[C@]1(NC(=O)[C@@H]1C[C@@]2(CN1C(=O)[C@@H](NC(=O)[C@@H](NC(=O)[C@@H]1CCCCN1C(C)C)C(C)(C)C)C(C)(C)C)C(C)(C)C21CCC1)C(=O)NS(=O)(=O)N1CCCC1 [Compound 3, (5R,8S)-7-[(2S)-2-{[(2S)-2-({[(2S)-1-isopropylpiperidin-2-yl]carbonyl}amino)-3,3-dimethylbutanoyl]amino}-3,3-dimethylbutanoyl]-10,10-dimethyl-N-{(1R,2S)-1-[(pyrrolidin-1-ylsulfonyl)carbamoyl]-2-vinylcyclopropyl}-7-azadispiro[3.0.4.1]decane-8-carboxamide]",0.006
4,"C=C[C@@H]1C[C@]1(NC(=O)[C@@H]1C[C@@]2(CN1C(=O)[C@@H](NC(=O)[C@@H](NC(=O)[C@@H]1CCCN(CC)C1)C(C)(C)C)C(C)(C)C)C(C)(C)C21CCC1)C(=O)NS(=O)(=O)N1CCCC1 [Compound 4, (5R,8S)-7-[(2S)-2-{[(2S)-2-({[(3R)-1-ethylpiperidin-3-yl]carbonyl}amino)-3,3-dimethylbutanoyl]amino}-3,3-dimethylbutanoyl]-10,10-dimethyl-N-{(1R,2S)-1-[(pyrrolidin-1-ylsulfonyl)carbamoyl]-2-vinylcyclopropyl}-7-azadispiro[3.0.4.1]decane-8-carboxamide]",0.035
5,"C=C[C@@H]1C[C@]1(NC(=O)[C@@H]1C[C@@]2(CN1C(=O)[C@@H](NC(=O)[C@@H](NC(=O)OC(C)(C)C)C(C)(C)C)C(C)(C)C)C(C)(C)C21CCC1)C(=O)NS(=O)(=O)N1CCOCC1 [Compound 5, tert-butyl [(1S)-1-{[(1S)-1-{[(5R,8S)-10,10-dimethyl-8-({(1R,2S)-1-[(morpholin-4-ylsulfonyl)carbamoyl]-2-vinylcyclopropyl}carbamoyl)-7-azadispiro[3.0.4.1]dec-7-yl]carbonyl}-2,2-dimethylpropyl]carbamoyl}-2,2-dimethylpropyl]carbamate]",6.65
6,"C=C[C@@H]1C[C@]1(NC(=O)[C@@H]1C[C@@]2(CN1C(=O)[C@@H](NC(=O)[C@@H](NC(=O)[C@@H]1CCCCN1C(C)C)C(C)(C)C)C(C)(C)C)C(C)(C)C21CCC1)C(=O)NS(=O)(=O)N1CCOCC1 [Compound 6, (5R,8S)-7-[(2S)-2-{[(2S)-2-({[(2S)-1-isopropylpiperidin-2-yl]carbonyl}amino)-3,3-dimethylbutanoyl]amino}-3,3-dimethylbutanoyl]-10,10-dimethyl-N-{(1R,2S)-1-[(morpholin-4-ylsulfonyl)carbamoyl]-2-vinylcyclopropyl}-7-azadispiro[3.0.4.1]decane-8-carboxamide]",0.045
7,"C=C[C@@H]1C[C@]1(NC(=O)[C@@H]1C[C@@]2(CN1C(=O)[C@@H](NC(=O)[C@@H](NC(=O)[C@@H]1CCCN(CC)C1)C(C)(C)C)C(C)(C)C)C(C)(C)C21CCC1)C(=O)NS(=O)(=O)N1CCOCC1 [Compound 7, (5R,8S)-7-[(2S)-2-{[(2S)-2-({[(3R)-1-ethylpiperidin-3-yl]carbonyl}amino)-3,3-dimethylbutanoyl]amino}-3,3-dimethylbutanoyl]-10,10-dimethyl-N-{(1R,2S)-1-[(morpholin-4-ylsulfonyl)carbamoyl]-2-vinylcyclopropyl}-7-azadispiro[3.0.4.1]decane-8-carboxamide]",0.45
8,"C=C[C@@H]1C[C@]1(NC(=O)[C@@H]1C[C@@]2(CN1C(=O)[C@@H](NC(=O)[C@@H](NC(=O)[C@@H]1CCCCN1CCF)C(C)(C)C)C(C)(C)C)C(C)(C)C21CCC1)C(=O)NS(=O)(=O)N1CCOCC1 [Compound 8, (5R,8S)-7-[(2S)-2-{[(2S)-2-({[(2S)-1-(2-fluoroethyl)piperidin-2-yl]carbonyl}amino)-3,3-dimethylbutanoyl]amino}-3,3-dimethylbutanoyl]-10,10-dimethyl-N-{(1R,2S)-1-[(morpholin-4-ylsulfonyl)carbamoyl]-2-vinylcyclopropyl}-7-azadispiro[3.0.4.1]decane-8-carboxamide]",0.3
9,"C=C[C@@H]1C[C@]1(NC(=O)[C@@H]1C[C@@]2(CN1C(=O)[C@@H](NC(=O)[C@@H](N1CCCC1=O)C(C)(C)C)C(C)(C)C)C(C)(C)C21CCC1)C(=O)NS(=O)(=O)N1CCCC1 [Compound 9, (5R,8S)-7-[(2S)-2-{[(2S)-3,3-dimethyl-2-(2-oxopyrrolidin-1-yl)butanoyl]amino}-3,3-dimethylbutanoyl]-10,10-dimethyl-N-{(1R,2S)-1-[(pyrrolidin-1-ylsulfonyl)carbamoyl]-2-vinylcyclopropyl}-7-azadispiro[3.0.4.1]decane-8-carboxamide]",0.1
10,"C=C[C@@H]1C[C@]1(NC(=O)[C@@H]1C[C@@]2(CN1C(=O)[C@@H](NC(=O)[C@@H](NC(=O)C(C)(C)N1CCCC1)C(C)(C)C)C(C)(C)C)C(C)(C)C21CCC1)C(=O)NS(=O)(=O)N1CCCC1 [Compound 10, (5R,8S)-7-[(2S)-2-({(2S)-3,3-dimethyl-2-[(2-methyl-2-pyrrolidin-1-ylpropanoyl)amino]butanoyl}amino)-3,3-dimethylbutanoyl]-10,10-dimethyl-N-{(1R,2S)-1-[(pyrrolidin-1-ylsulfonyl)carbamoyl]-2-vinylcyclopropyl}-7-azadispiro[3.0.4.1]decane-8-carboxamide]",0.065
11,"C=C[C@@H]1C[C@]1(NC(=O)[C@@H]1C[C@@]2(CN1C(=O)[C@@H](NC(=O)[C@@H](NC(=O)[C@@H]1CCCN1C(C)C)C(C)(C)C)C(C)(C)C)C(C)(C)C21CCC1)C(=O)NS(=O)(=O)N1CCCC1 [Compound 11, (5R,8S)-7-[(2S)-2-{[(2S)-2-({[(2S)-1-isopropylpyrrolidin-2-yl]carbonyl}amino)-3,3-dimethylbutanoyl]amino}-3,3-dimethylbutanoyl]-10,10-dimethyl-N-{(1R,2S)-1-[(pyrrolidin-1-ylsulfonyl)carbamoyl]-2-vinylcyclopropyl}-7-azadispiro[3.0.4.1]decane-8-carboxamide]",0.02
12,"C=C[C@@H]1C[C@]1(NC(=O)[C@@H]1C[C@@]2(CN1C(=O)[C@@H](NC(=O)[C@@H](NC(=O)[C@@H]1CCN1C(C)C)C(C)(C)C)C(C)(C)C)C(C)(C)C21CCC1)C(=O)NS(=O)(=O)N1CCCC1 [Compound 12, (5R,8S)-7-[(2S)-2-{[(2S)-2-({[(2S)-1-isopropylazetidin-2-yl]carbonyl}amino)-3,3-dimethylbutanoyl]amino}-3,3-dimethylbutanoyl]-10,10-dimethyl-N-{(1R,2S)-1-[(pyrrolidin-1-ylsulfonyl)carbamoyl]-2-vinylcyclopropyl}-7-azadispiro[3.0.4.1]decane-8-carboxamide]",0.04
13,"C=C[C@@H]1C[C@]1(NC(=O)[C@@H]1C[C@@]2(CN1C(=O)[C@@H](NC(=O)[C@@H](NC(=O)[C@@H]1CCCCN1C(C)C)C1CCCCC1)C(C)(C)C)C(C)(C)C21CCC1)C(=O)NS(=O)(=O)N1CCCC1 [Compound 13, (5R,8S)-7-[(2S)-2-{[(2S)-2-cyclohexyl-2-({[(2S)-1-isopropylpiperidin-2-yl]carbonyl}amino)acetyl]amino}-3,3-dimethylbutanoyl]-10,10-dimethyl-N-{(1R,2S)-1-[(pyrrolidin-1-ylsulfonyl)carbamoyl]-2-vinylcyclopropyl}-7-azadispiro[3.0.4.1]decane-8-carboxamide]",0.003
14,"C=C[C@@H]1C[C@]1(NC(=O)[C@@H]1C[C@@]2(CN1C(=O)[C@@H](NC(=O)[C@@H](NC(=O)C(C)(C)N1CCCC1)C1CCCCC1)C(C)(C)C)C(C)(C)C21CCC1)C(=O)NS(=O)(=O)N1CCCC1 [Compound 14, (5R,8S)-7-[(2S)-2-({(2S)-2-cyclohexyl-2-[(2-methyl-2-pyrrolidin-1-ylpropanoyl)amino]acetyl}amino)-3,3-dimethylbutanoyl]-10,10-dimethyl-N-{(1R,2S)-1-[(pyrrolidin-1-ylsulfonyl)carbamoyl]-2-vinylcyclopropyl}-7-azadispiro[3.0.4.1]decane-8-carboxamide]",0.003
15,"C=C[C@@H]1C[C@]1(NC(=O)[C@@H]1C[C@@]2(CN1C(=O)[C@@H](NC(=O)[C@@H](NC(=O)[C@@H]1CCCN1C(C)C)C1CCCCC1)C(C)(C)C)C(C)(C)C21CCC1)C(=O)NS(=O)(=O)N1CCCC1 [Compound 15, (5R,8S)-7-[(2S)-2-{[(2S)-2-cyclohexyl-2-({[(2S)-1-isopropylpyrrolidin-2-yl]carbonyl}amino)acetyl]amino}-3,3-dimethylbutanoyl]-10,10-dimethyl-N-{(1R,2S)-1-[(pyrrolidin-1-ylsulfonyl)carbamoyl]-2-vinylcyclopropyl}-7-azadispiro[3.0.4.1]decane-8-carboxamide]",0.002
